According to patent US20230270730A1, “COMPOSITION CONTAINING ARYLAMIDE DERIVATIVE” (Chugai Seiyaku Kabushiki Kaisha, priority 2020, published 2023):

Key:
[1] = system: A549 human lung cancer cells; experiment: Cell proliferation-inhibiting activity, A549 (CellTiter-Glo); format: cell-based; conditions: A549, 96 h
Protocol: The test compound was serially diluted with DMSO and then diluted 25-fold with Ca^2+, Mg^2+-free phosphate-buffered saline, and was then dispensed into a 96-well plate at 5 μL per well. A cell suspension containing the below indicated concentration of A549, Calu-6 or NCI-H2122 human lung cancer cells (all obtained from ATCC) was prepared using the below indicated medium with the addition of 10% fetal bovine serum (Sigma). The cell suspension was dispensed into the test compound-added plate at 95 μL per well and cultured in a 5% carbon dioxide gas incubator at 37° C. After 4 days, 80 μL of CellTiter-Glo (registered trademark) (Promega Corp.) was added to each well and the bioluminescence was measured with a fluorescent plate reader.

[2] = Human liver microsome stability; format: in vitro ADME; conditions: pH 7.4; human liver microsomes, NADPH, 37° C.
Protocol: The compounds listed in Table 2 below were tested for metabolic stability in human liver microsomes as described below using a Biomek3000 (Beckman Coulter). There were dispensed 400 ILL of 1 mg/mL human liver microsomes (XENOTECH)/0.1 M potassium phosphate buffer (pH 7.4) into each well of a 96-well plate. A DMSO solution (4 μL) of 200 μM test compound was then added, and incubation was conducted until reaching 37° C. To this reaction mixture (200 IL) there was added a solution (200 μL) containing 2 mM NADPH (ORIENTAL YEAST)/0.1 M potassium phosphate buffer (pH 7.4) that had been incubated at 37° C. At 0 min, 5 min, 15 min or 30 min after addition, the reaction mixture (50 μL) was added to acetonitrile (100 μL) to stop the metabolic reaction. After the metabolic reaction was stopped, a 1 μM warfarin aqueous solution (50 μL) was added to each reaction mixture as an internal standard. […] The percent remaining relative to the amount of test compound at 0 min was calculated from the obtained peak area ratio of the test compound to internal standard. The elimination rate constant (ke) was calculated from the incubation time and percent remaining using the primary elimination rate equation, and the hepatic intrinsic clearance (CLint) was calculated using the formula shown below. […]

BRAF = molecular target: T1, BRAF (Homo sapiens, UniProt P15056); experiment: BRAF-inhibiting activity (time-resolved fluorescence-fluorescence resonance energy transfer assay); format: biochemical; conditions: MEK1, ATP-containing buffer
T1 construct: purchased Eurofins Genomics KK
Protocol: The BRAF-inhibiting activity of the compounds listed in Table 2 below was evaluated by the time-resolved fluorescence-fluorescence resonance energy transfer assay as described below.

T1 sequence (P15056 whole entry): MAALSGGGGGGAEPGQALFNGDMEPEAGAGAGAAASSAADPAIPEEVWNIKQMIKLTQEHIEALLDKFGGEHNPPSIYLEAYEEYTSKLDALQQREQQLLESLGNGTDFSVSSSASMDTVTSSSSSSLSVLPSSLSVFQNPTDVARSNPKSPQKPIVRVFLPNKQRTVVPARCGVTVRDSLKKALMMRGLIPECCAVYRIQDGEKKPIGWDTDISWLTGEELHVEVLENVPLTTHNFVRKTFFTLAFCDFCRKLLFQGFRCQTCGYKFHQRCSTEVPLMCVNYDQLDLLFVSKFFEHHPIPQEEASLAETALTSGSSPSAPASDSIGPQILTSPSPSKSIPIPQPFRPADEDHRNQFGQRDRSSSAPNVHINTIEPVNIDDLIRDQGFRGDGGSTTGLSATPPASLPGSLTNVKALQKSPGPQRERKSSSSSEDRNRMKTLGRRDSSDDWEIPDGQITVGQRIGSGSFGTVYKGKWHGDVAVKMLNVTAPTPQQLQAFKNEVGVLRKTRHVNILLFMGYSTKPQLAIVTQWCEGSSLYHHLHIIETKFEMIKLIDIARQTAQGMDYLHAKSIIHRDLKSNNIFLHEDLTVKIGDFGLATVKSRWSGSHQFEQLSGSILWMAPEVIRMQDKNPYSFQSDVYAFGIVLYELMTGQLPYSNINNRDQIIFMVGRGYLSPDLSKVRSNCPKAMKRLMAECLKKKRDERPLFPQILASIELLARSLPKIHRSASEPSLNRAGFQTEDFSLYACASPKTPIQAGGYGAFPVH
T1 sequence (Q02750 whole entry partner): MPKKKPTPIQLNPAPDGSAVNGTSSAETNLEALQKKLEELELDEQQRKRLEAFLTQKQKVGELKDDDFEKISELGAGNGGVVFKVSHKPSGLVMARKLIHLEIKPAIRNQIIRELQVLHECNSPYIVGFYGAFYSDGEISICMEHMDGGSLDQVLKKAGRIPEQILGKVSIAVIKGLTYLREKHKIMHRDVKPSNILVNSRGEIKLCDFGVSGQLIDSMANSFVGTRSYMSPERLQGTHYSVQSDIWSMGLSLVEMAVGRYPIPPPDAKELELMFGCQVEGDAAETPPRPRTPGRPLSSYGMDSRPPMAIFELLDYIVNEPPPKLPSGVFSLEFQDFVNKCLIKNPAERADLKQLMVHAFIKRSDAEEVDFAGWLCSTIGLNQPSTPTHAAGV

SMILES	IC50 [1] [nM]	IC50 (BRAF) [nM]	other results
NC(=O)c1cc(Cc2ccnc(NS(=O)(=O)NCC3COC3)c2F)c(F)c(F)c1Nc1ccc(I)cc1F [Sample A-21, 3,4-difluoro-2-(2-fluoro-4-iodoanilino)-5-[[3-fluoro-2-(oxetan-3-ylmethylsulfamoylamino)pyridin-4-yl]methyl]benzamide]	3		
NC(=O)c1cc(Cc2ccnc(NS(=O)(=O)NC3C4COCC43)c2F)c(F)c(F)c1Nc1ccc(I)cc1F (centres unmarked) [Sample A-22, 3,4-Difluoro-2-(2-fluoro-4-iodoanilino)-5-[[3-fluoro-2-(3-oxabicyclo[3.1.0]hexan-6-ylsulfamoylamino)pyridin-4-yl]methyl]benzamide]			microsomal CLint at 0.99 µM [2]: 47 µL/min/mg
NC(=O)c1cc(Cc2ccnc(NS(=O)(=O)NC3CCOCC3)c2F)c(F)c(F)c1Nc1ccc(I)cc1F [Sample A-29, 3,4-Difluoro-2-(2-fluoro-4-iodoanilino)-5-[[3-fluoro-2-(oxan-4-ylsulfamoylamino)pyridin-4-yl]methyl]benzamide]		1	
CC1(NS(=O)(=O)Nc2nccc(Cc3cc(C(N)=O)c(Nc4ccc(I)cc4F)c(F)c3F)c2F)CCC1 [Sample A-35, 3,4-difluoro-2-(2-fluoro-4-iodoanilino)-5-[[3-fluoro-2-[(1-methylcyclobutyl)sulfamoylamino]pyridin-4-yl]methyl]benzamide]	2		
CCNS(=O)(=O)Nc1nccc(Cc2cc(C(=O)NOCCO)c(Nc3ccc(I)cc3F)c(F)c2F)c1F [Sample A-44, 5-[[2-(Ethylsulfamoylamino)-3-fluoropyridin-4-yl]methyl]-3,4-difluoro-2-(2-fluoro-4-iodoanilino)-N-(2-hydroxyethoxy)benzamide]		9	
